Legend:
NPC1 promoter [1] = assay: qHTS of NPC1 Promoter-Luciferase Reporter Gene Assay (firefly, Huh7); format: cell-based, human; details: 24 hours
Procedure: (§1) qHTS of NPC1 Promoter-Luciferase Reporter Gene Assay. For the second primary screen, a promoter assay was developed by engineering a vector using approximately 1.5 kb of the NPC1 promoter to drive the expression of the firefly luciferase reporter gene. Thus, NPC1 promoter activation results in luciferase expression. This vector was used to generate Huh7 cell lines stably expressing the NPC1-luciferase vector. […] Cells were plated for assays in OPTI-MEM I reduced-serum medium supplemented with 10% FBS at 1,500 cells/well in 5 μL in 1,536-well white opaque plates with 23 nL/well of test compound in DMSO solution. The assay plates were incubated at 37° C. for 24 hours, after which 3 μL/well BriteLite plus luciferase detection reagent mixture (Perkin Elmer) was added. Luminescence signal was measured in a ViewLux plate reader (Perkin Elmer) after a 10 minute incubation at room temperature.

Rab9 promoter = assay: qHTS of Rab9 Promoter-Luciferase Reporter Gene Assay (firefly, Huh7); format: cell-based, human; details: 24 hours
Procedure: as §1, with “Rab9” for “NPC1”, “the” for “the second”, “Rab9-luciferase” for “NPC1-luciferase”

[2] = system: NPC1 patient cell fibroblasts; assay: Filipin Staining Assay to Detect Free Cholesterol Accumulation in NPC Cells; format: cell-based, human; details: filipin fluorescence relative to untreated cells
Procedure: Filipin Staining Assay to Detect Free Cholesterol Accumulation in NPC Cells. Compounds were evaluated for their effect on the NPC1 cellular phenotype by staining treated NPC1 patient cell fibroblasts with filipin, which recognizes free unesterified cholesterol. Compounds that upregulate the NPC1 promoter were expected to reduce the filipin staining in treated NPC1 fibroblasts compared to untreated NPC1 fibroblasts, indicating clearance of unesterified cholesterol. Conversely, inhibitors of the NPC1 promoter were expected to increase filipin staining in wild-type fibroblasts, thus indicating the emergence of an NPC-like phenotype. Briefly, cells were grown in lipoprotein-deficient medium for 3-4 days, and then the medium was replaced and supplemented with test compound plus 50 μg/mL low-density lipoprotein (LDL). After 24-48 hours, cells were stained with filipin and scored under the 40× magnification filter using the integrated morphometry function in the Metavue program (Molecular Devices). Test compounds that decreased the intensity of filipin fluorescence to less than 50% of untreated cells are considered of particular interest.

Wild type (Wt) cells = assay: VTB-GL-3 assay, wild type cells; format: cell-based, human; details: Wt cells treated for 3 days
NPC3 cells = assay: Lactosyl Ceramide (BODIPY-LacCer) staining to monitor sphingolipid transport; format: cell-based, human; details: for correction of lipid transport block (accumulation of Bodipy LacCer probe to the Golgi): compared to untreated NPC3 cells
Procedure: Lactosyl Ceramide staining to monitor sphingolipid transport in NPC cells. The effect of each compound on the sphingolipid transport defect seen in NPC1 fibroblasts was assessed in cells treated with compound for 48-72 hours using the fluorescent probe BODIPY-lactosylceramide (LacCer). […] This mislocalization can be corrected and Golgi localization restored by expression of Wt NPC1 protein or Rab9, thus providing a dynamic view of the endocytic transport pathway. Cells were incubated with 5 μM BODIPY-LacCer/BSA for 45 min at 37° C. in culture medium containing 1% FBS, washed, and further incubated for 1 h at 37° C. in medium containing 1% FBS. Fluorescent lipid present at the plasma membrane was removed by back-exchange with 5% fatty acid-free BSA. Cells were fixed with 3% paraformaldehyde for 20 min at RT and then visualized on a Nikon Eclipse microscope fitted with a charge-coupled-device camera. Images were acquired with MetaVue software and then deconvoluted using AutoDeblur software.
Unlike the VTB assay above that detects the static levels of lipid storage, the Bodipy LacCer probe allows for detection of the recovery/correction of lipid transport from the plasma membrane to the Golgi apparatus as described above. This dynamic assay can be used to determine the level of correction various compounds have on the NPC transport block.

NPC1 promoter [3] = assay: Confirmation Assay of NPC1 Promoter Activators: Renilla Luciferase (Huh7); format: cell-based, human; details: 24 hours
Procedure: Confirmation Assay of NPC1 Promoter Activators: Renilla Luciferase. The confirmation assay was carried out using an assay in which the NPC1 promoter drives the expression of a different luciferase protein from the one used in the primary screen. The NPC1 promoter was cloned in front of the renilla luciferase reporter gene. NPC1 promoter activation results in renilla luciferase expression. This vector was used to generate Huh7 cell lines stably expressing the NPC1-renilla luciferase vector. These cells were propagated and maintained in medium containing RPMI-1640 supplemented with 10% FBS, 2 mM L-glutamine, and 50 μg/mL penicillin/streptomycin. Cells were plated for assays in OPTI-MEM I reduced-serum medium supplemented with 10% FBS at 1,500 cells/well in 5 μL in 1,536-well white opaque plates and then 23 nL/well of compound in DMSO solution were added through pin transfer. The assay plates were incubated at 37° C. for 24 hours. The Amplite luciferase reporter gene assay kit was purchased from ABD Bioquest and prepared/stored according to manufacturer's recommendations. Luminescence signal was measured in a ViewLux plate reader (Perkin Elmer) after a 10 minute incubation at room temperature.

Renilla Enzyme = target: T1, Renilla Enzyme (Renilla reniformis, UniProt P27652); assay: Biochemical Renilla Luciferase Counter assay
T1 sequence (P27652 1-311): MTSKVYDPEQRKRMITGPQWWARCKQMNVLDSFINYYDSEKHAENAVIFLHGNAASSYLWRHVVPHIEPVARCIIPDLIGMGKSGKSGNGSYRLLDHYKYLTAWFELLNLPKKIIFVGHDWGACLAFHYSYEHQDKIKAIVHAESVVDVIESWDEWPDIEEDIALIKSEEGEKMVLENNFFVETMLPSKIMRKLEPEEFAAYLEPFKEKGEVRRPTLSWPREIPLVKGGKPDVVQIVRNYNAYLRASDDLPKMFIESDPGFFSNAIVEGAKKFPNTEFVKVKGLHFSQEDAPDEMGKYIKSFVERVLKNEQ
Procedure: Biochemical Renilla Luciferase Counter assay. An orthogonal assay was run to exclude any compounds that promoted renilla luciferase signal by stabilizing the renilla protein. Briefly, 3 μL of 0.01 mM D-Luciferin and 0.01 mM ATP was dispensed into a 1536 well white, solid bottom plate. Through pinning, 23 nL of compound was added; PTC124 (3-[5-(2-Fluorophenyl)-1,2,4-oxadiazol-3-yl]benzoic acid) served as the control. After a 10 min incubation at room temperature, 1 μL of Luciferase was added, after which the plate was immediately read on the ViewLux for a luminescent read-out.

Structure (SMILES) | EC50 (NPC1 promoter [1]) | NPC1 Eff. (NPC1 promoter [1]) | EC50 (Rab9 promoter) | Rab9 Eff. (Rab9 promoter) | % storage at 0.1 μM [2] | % storage at 1 μM [2] | effect on storage of lipid material (VTB staining) in Wt cells (Wild type (Wt) cells) | percent Golgi location (NPC3 cells; 1 μM) | correction of lipid transport block (accumulation of Bodipy LacCer probe to the Golgi) (NPC3 cells) | percent Golgi location (NPC3 cells; 10 or 100 nM) | EC50 (NPC1 promoter [3]) | NPC1-renilla Eff. (NPC1 promoter [3]) | Renilla Enzyme IC50 (Renilla Enzyme)
CC(=O)c1c(C)[nH]c(C(=O)Nc2cccc(S(=O)(=O)N(C)C)c2)c1C [Example 1] | 6.6 to 7.7 µM | 68-83% | 6.1 µM | 148% | 40% | 22% | no effect on Wt cells | reduces percent Golgi location by a statistically significant amount | correction of their block | – | – | – | –
COc1ccc(NC(=O)c2[nH]c(C)c(C(C)=O)c2C)cc1S(=O)(=O)Nc1ccc(Br)cc1 [Example 36] | 0.7 µM | 150% | – | – | 50% | 25% | no effect on Wt cells | – | correction of their block | reduces percent Golgi location by a statistically significant amount | – | – | –
COc1ccc(NC(=O)C23CC4CC(CC(C4)C2)C3)cc1S(=O)(=O)Nc1ccc(Br)cc1 [Example 47] | – | – | – | – | – | 33% | – | – | – | – | 2.7 µM | 80% | Inactive

— patent publication US10239830B2, “Benzenesulfonamide upregulators of NPC1 for Neimann-Pick disease and other lysosomal storage disorders” (ICAHN SCHOOL OF MEDICINE AT MOUNT SINAI, priority 2015, dated 2019)
